# Earlier results, collected in patent US6979677B1, “Inhibition of vascular smooth muscle cell proliferation” (priority 1994, dated 2005).
# Experiments:
# cerebral glioma = settings: rats with HSV-tk-expressing murine fibroblasts, given GCV
# [1] = tested on: transplantable murine adenocarcinoma; settings: HSV-tk transfected adenocarcinoma treated with GCV
# lymphomas = settings: of 12 mice treated with GCV
# [2] = tested on: nondividing rabbit arterial cells
smiles,measurement,setting,value
"Nc1nc(O)c2ncn(COC(CO)CO)c2n1 [GCV, ganciclovir]","glioma regression, microscopically and macroscopically",cerebral glioma,regressed completely
same,tumor response in vivo,[1],regression
same,number of mice with complete tumor regression,lymphomas,11
same,expression of HSV-tk-β-galactosidase construct under GCV treatment,[2],unaffected
